These results are taken from publication PMC10005967, “Discriminative binding of tau PET tracers PI2620, MK6240 and RO948 in Alzheimer’s disease, corticobasal degeneration and progressive supranuclear palsy brains” (Molecular Psychiatry, 2022).

“And” between values parts separate entries of the source, which are not always exact repeats. Identical values can stand only once. Like-named read-outs stand apart in the source and are kept apart here. Bounds are passed on as bounds.

The target of experiment [1] is tau, AD FC brain homogenates (Homo sapiens, UniProt P10636). The experiment can be described thus: ^3H-PI2620 competitive binding assay in AD frontal cortex brain homogenates. Conditions: for proportion of HA binding sites / proportion of SHA binding sites: vs 0.6 nM ^3H-PI2620; for IC50: vs 0.6 nM ^3H-PI2620, 2-site competition model. The protocol:
(§1) Frozen human brain tissue from eleven AD, five CBD, four PSP and eight control patients was provided by the Netherlands Brain Bank (Amsterdam, Netherlands). Frozen human brain tissue from PSP case number 26 was provided by Professor Bernadino Ghetti, the Neuropathology of Dementia Laboratory, Indiana University School of Medicine (Indianapolis, IN, USA) (see Table 1 for demographic data). Brain homogenates were prepared by homogenising the brain tissue in phosphate buffer saline (PBS; pH 7.4) containing 0.1% BSA (250 mg tissue/mL) and protease/phosphatase inhibitors (10 μL/mL); aliquots were stored at −80 °C until used in the binding experiments.
Competitive binding assays on four AD FC brain homogenates [two early-onset (EO) AD and two late-onset (LO) AD; 0.5 mg tissue] were performed using 0.6 nM of ^3H-PI2620 and increasing concentrations (1 × 10^−18 M to 1 × 10^−6 M) of unlabelled PI2620, unlabelled MK6240 and unlabelled RO948 for 2 h at RT. The binding assay was accomplished as described above. The half-maximal inhibitory concentration (IC50) was measured using the 2-site competition model in GraphPad Prism 9 software.

For another experiment, the target named is tau, CBD FC homogenates (Homo sapiens, UniProt P10636). Nature of the experiment: ^3H-PI2620 competitive binding assay in CBD frontal cortex brain homogenates. The protocol:
as §1
(§2) Competitive binding assays were also carried out under the same conditions, on three PSP FC homogenates and three CBD FC homogenates using 0.6 nM and 1 nM of ^3H-PI2620, respectively, in the presence of increasing concentrations of unlabelled PI2620 (1 × 10^−18 M to 1 × 10^−6 M). The 2-site competition model in GraphPad Prism 9 software was used to plot the AD, CBD, and PSP data.

The target in another experiment is tau, PSP FC homogenates (Homo sapiens, UniProt P10636). Nature of the experiment: ^3H-PI2620 competitive binding assay in PSP frontal cortex brain homogenates. To be noted: vs 0.6 nM ^3H-PI2620, only one binding site. The protocol:
as §1, §2

Experiment [2] relates to tau, AD brain homogenates. Conditions: cited from earlier work; for high-affinity (HA) binding site: AD brain homogenates.
The test system of experiment [3] is tau, post-mortem PSP brain tissue. To be noted: cited from earlier work.
Setting [4] is: read-out: IC50(1), super-high affinity (SHA) site.
Where [5] appears, read: read-out: IC50(2), high affinity (HA) site.

Chain of tau, CBD FC homogenates (P10636 561-697 limits assumed): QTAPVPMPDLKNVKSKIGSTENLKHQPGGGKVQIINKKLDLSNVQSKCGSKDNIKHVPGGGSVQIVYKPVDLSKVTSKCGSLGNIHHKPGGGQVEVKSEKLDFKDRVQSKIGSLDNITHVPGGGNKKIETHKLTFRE
Chain of tau, AD FC brain homogenates (P10636 623-708 limits assumed): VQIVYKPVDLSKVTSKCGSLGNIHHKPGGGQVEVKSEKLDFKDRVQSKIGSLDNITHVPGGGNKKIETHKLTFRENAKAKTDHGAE
Chain of tau, PSP FC homogenates (P10636 561-698 limits assumed): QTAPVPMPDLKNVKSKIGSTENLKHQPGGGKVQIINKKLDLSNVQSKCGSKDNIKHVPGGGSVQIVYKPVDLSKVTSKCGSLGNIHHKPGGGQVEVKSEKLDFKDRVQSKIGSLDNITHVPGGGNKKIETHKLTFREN

Turning to `Fc1cc(-c2ccc3c(n2)[nH]c2ccncc23)ccn1` [PI2620], the “proportion of HA binding sites” value in experiment [1] was > 70% and 77%; on tau, CBD FC homogenates (vs 1 nM ^3H-PI2620), 54%. Also, the “proportion of SHA binding sites” value in experiment [1] is > 20% and 23%; on tau, CBD FC homogenates (vs 1 nM ^3H-PI2620) it was 46%. Also, the 50% inhibitory concentration (IC50) in experiment [1] (setting [4]) worked out at 0.0081 nM; in experiment [1] (setting [5]) it was 4.9 nM; on tau, CBD FC homogenates (vs 1 nM ^3H-PI2620, read-out: IC50(1), SHA site) it was 0.0056 nM; at tau, CBD FC homogenates (vs 1 nM ^3H-PI2620, read-out: IC50(2), HA site), 7.7 nM; on tau, PSP FC homogenates, 2.5 nM. Besides, in experiment [2], the “high-affinity (HA) binding site” value is 8.5 nM.
Regarding `Fc1ccc(-c2ccc3c(c2)[nH]c2ccncc23)cn1` [^18F-AV-1451], in experiment [3], the “in vitro binding using autoradiography” value is listed as “no in vitro binding”.
As for `Fc1ccc(-c2ccc3c(n2)[nH]c2cnccc23)cn1` [RO948], in experiment [1], the “proportion of HA binding sites” value was > 70% and 79%; the “proportion of SHA binding sites” value was > 20% and 21%. In addition, in experiment [1] (setting [4]), the 50% inhibitory concentration (IC50) is 0.0058 nM. Further, the half-maximal inhibitory concentration (IC50) in experiment [1] (setting [5]) was determined as 6.8 nM. Further, the “high-affinity (HA) binding site” value in experiment [2] was 18 nM.
As to `Nc1c(F)ccc2cnc(-n3ccc4ccncc43)cc12` [MK6240], in experiment [1], the “proportion of HA binding sites” value was > 70% and 76%; the “proportion of SHA binding sites” value was > 20% and 24%. In addition, the IC50 in experiment [1] (setting [4]) was found to be 0.0027 nM. Further, the 50% inhibitory concentration (IC50) in experiment [1] (setting [5]) worked out at 4.5 nM. In experiment [2], the “high-affinity (HA) binding site” value is 0.15 to 0.32 nM. For the same compound, in experiment [2] (AD hippocampus, ^3H-MK6240), the HA site was 12 nM and the “super-high affinity (SHA) site” value is reported as 1 pM. Moreover, in experiment [2] (AD hippocampus), the “proportion of HA site” value is 42% and the “proportion of SHA site” value is listed as 58%.

What is called IC50 is the concentration that inhibits the measured activity by half.
